Test results published in patent publication US7759326B2, “Aminophosphonic acid derivative, salt thereof, and modulator of S1P receptor” (Kyorin Pharmaceutical Co., Ltd., priority 2003, dated 2010).
Counter-ions that a name gives are not always drawn.

What was measured:
hS1P3 receptors = biological target: T1, hS1P3 receptors (Homo sapiens, UniProt Q99500); experiment: Intracellular Ca2+ mobilization in CHO cells expressing human S1P receptors (hS1P3); assay type: cell-based; settings: read-out: S1P3 (EC50 class, intracellular Ca2+ mobilization)
T1 construct: expressed in transfected cells; host or cells: CHO cells (Geneticin-selected)
T1 sequence (Q99500 whole entry): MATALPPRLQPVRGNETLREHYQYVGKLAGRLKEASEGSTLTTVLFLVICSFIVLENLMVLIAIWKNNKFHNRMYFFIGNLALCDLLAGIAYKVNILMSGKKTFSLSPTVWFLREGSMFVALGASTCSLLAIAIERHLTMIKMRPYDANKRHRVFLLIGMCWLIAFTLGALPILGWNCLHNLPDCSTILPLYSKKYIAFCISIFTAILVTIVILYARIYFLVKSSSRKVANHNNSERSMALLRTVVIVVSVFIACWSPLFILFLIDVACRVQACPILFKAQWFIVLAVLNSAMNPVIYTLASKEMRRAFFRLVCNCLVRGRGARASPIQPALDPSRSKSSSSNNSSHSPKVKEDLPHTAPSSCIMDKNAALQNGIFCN
Procedure: (§1) Test for the Ability of Test Compounds to Induce Intracellular Ca^2+ Mobilization in Cells Expressing Human S1P (Sphingosine-1-Phosphate) Receptors
(§2) CHO cells expressing human S1P receptors (i.e., CHO cells expressing hS1P1 receptors or hS1P3 receptors) were subcultured on Ham's F-12 medium supplemented with 10% fetal bovine serum and 200 μg/mL Geneticin. The cells were seeded on a 96-well black clear bottom plate (COSTAR) at 4×10^4 cells/well and were cultured overnight at 37° C. in 5% CO2. A fluorescent reagent that emits fluorescence upon binding to Ca^2+ (Calcium Screening Kit (DOJINDO)) was added to the culture and the cells were further cultured for 60 min at 37° C. in 5% CO2. After culturing, microplate spectrofluorometer (FLEX station, MOLECULAR DEVICE) was used to measure the fluorescence intensity at an excitation wavelength of 485 nm and a detection wavelength of 525 nm. S1P or a test compound adjusted with cultural medium to a concentration 10 times higher than the final concentration (final DMSO concentration=0.1%). Each test compound solution was added 18 sec. after beginning of the measurement of fluorescence. The fluorescence intensity was measured every 1.5 sec for 100 sec. For each test compound, the difference between the maximum fluorescence intensity and the minimum fluorescence intensity (i.e., increase in fluorescence) was determined from the measurements. The rate of fluorescence increase (%) for each test compound was calculated by the difference (100%) of the fluorescence increase between solvent only and S1P (10^−6M). Using this value as an index of the ability of the test compound to induce intracellular Ca^2+ mobilization, EC50 was determined by PRISM software (GraphPad).

hS1P1 receptors = biological target: T2, hS1P1 receptors (Homo sapiens, UniProt P21453); experiment: Intracellular Ca2+ mobilization in CHO cells expressing human S1P receptors (hS1P1); assay type: cell-based; settings: read-out: S1P1 (EC50 class, intracellular Ca2+ mobilization)
T2 construct: expressed in transfected cells; host or cells: CHO cells (Geneticin-selected)
T2 sequence (P21453 whole entry): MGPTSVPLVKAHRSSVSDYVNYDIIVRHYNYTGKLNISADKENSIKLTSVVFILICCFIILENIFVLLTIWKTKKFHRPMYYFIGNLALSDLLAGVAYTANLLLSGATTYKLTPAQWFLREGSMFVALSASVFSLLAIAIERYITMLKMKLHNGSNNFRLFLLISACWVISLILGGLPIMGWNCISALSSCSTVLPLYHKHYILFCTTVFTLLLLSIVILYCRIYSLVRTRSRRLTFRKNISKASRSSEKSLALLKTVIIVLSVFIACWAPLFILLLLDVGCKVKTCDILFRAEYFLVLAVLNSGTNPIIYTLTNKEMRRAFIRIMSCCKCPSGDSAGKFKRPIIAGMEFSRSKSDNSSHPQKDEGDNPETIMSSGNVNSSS
Procedure: as §1, §2

[1] = system: host vs. graft rejection in mice; experiment: Inhibitory effects on host vs. graft rejection in mice (right popliteal lymph node weight); assay type: in vivo, C3H/HeN mice; settings: Mus musculus
Procedure: Inhibitory Effects of Test Compounds on Host Vs. Graft Rejection in Mice
This experiment was performed according to the method described in Transplantation 55(3) (1993): 578-591. Spleens were collected from 6 to 16 week old male BALB/c mice (CHARLES RIVER JAPAN). The spleens were placed in an RPMI-1640 medium (SIGMA) and were gently pressed between two slide glasses and then passed through a cell strainer (70 μm, Falcon) to form a cell suspension. The suspension was then centrifuged and the supernatant was discarded. An ammonium chloride-Tris isotonic buffer was added to the suspension to lyse erythrocytes. The cells were then centrifuged three times in RPMI-1640 medium for washing and were resuspended in an RPMI-1640 medium. To this suspension, mitomycin C (KYOWA HAKKO KOGYO Co., Ltd.) was added to a final concentration of 25 μg/mL and the suspension was incubated for 30 minutes at 37° C. in a 5% CO2 atmosphere. The cells were centrifuged three times in RPMI-1640 medium for washing and were resuspended in an RPMI-1640 medium so that the medium would contain 2.5×10^8 cells/mL. This suspension served as a “stimulation cell suspension.” Using a 27 G needle with a microsyringe (Hamilton), 20 μL (5×10^6 cells/mouse) of the stimulation cell suspension was subcutaneously injected into the right hind footpad of 6 to 8 week old male C3H/HeN mice (CLEA JAPAN). Normal control group was injected with RPMI-1640 medium alone. 4 days after the injection, right popliteal lymph nodes were collected and were weighed on a Mettler AT201 electronic scale (METTLER TOLEDO Co., Ltd.). Each animal was intraperitoneally administered a test compound once a day for four consecutive days starting on the day of the injection of the stimulation cells (i.e., total of 4 times). Control groups were administered the same vehicle as that used in the preparation of each test compound. The inhibition (%) was determined using the following formula {[Weight of right popliteal lymph nodes of positive control group]−[Weight of right popliteal lymph nodes of test compound group]×100}/{[Weight of right popliteal lymph nodes of positive control group]−[Weight of right popliteal lymph nodes of normal control group]} Formula 1

hS1P4 receptors = biological target: T3, hS1P4 receptors (Homo sapiens, UniProt O95977); experiment: Activation of extracellular regulatory kinase (ERK) in CHO cells expressing hS1P4 receptors; assay type: cell-based
T3 construct: expressed in transfected cells; host or cells: CHO cells (Geneticin-selected)
T3 sequence (O95977 1-384): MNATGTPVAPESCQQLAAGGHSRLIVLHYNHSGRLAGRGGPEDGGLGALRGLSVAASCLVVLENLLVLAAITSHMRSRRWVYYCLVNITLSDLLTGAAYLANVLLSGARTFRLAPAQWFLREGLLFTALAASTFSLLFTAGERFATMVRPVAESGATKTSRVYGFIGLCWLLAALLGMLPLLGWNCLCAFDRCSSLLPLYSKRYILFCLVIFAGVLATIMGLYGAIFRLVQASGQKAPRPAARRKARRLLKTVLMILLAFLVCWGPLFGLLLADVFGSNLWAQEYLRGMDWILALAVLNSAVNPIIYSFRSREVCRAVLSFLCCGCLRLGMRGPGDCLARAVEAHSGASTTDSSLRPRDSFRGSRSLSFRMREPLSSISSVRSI
Procedure: Test for the Ability of Test Compounds to Induce Activation of Extracellular Regulatory Kinase (ERK) in Cells Expressing Human S1P Receptors
CHO cells expressing human S1P receptors (i.e., CHO cells expressing hS1P4 receptors) were subcultured on Ham's F-12 medium supplemented with 10% fetal bovine serum and 200 μg/mL Geneticin. The cells were seeded on a 6-well cell culture plate (COSTAR) at 3×10^5 cells/well and were cultured overnight at 37° C. in 5% CO2. On the following day, the medium was replaced with FBS-free Ham's F-12 medium (containing 0.1% fatty acid-free bovine serum albumin) and the cells were cultured overnight at 37° C. in 5% CO2. S1P or a test compound adjusted with Ham's F-12 medium (with 0.1% fatty acid-free bovine serum albumin) to a concentration 10 times higher than the final concentration (final DMSO concentration=0.1%). Each test compound solution was added to this culture plate. The cells were cultured for 5 min at 37° C. in 5% CO2. The medium was removed and the cells were washed with a 200 μmol/L ice-cold PBS containing Na3VO4. A lysis buffer (20 mmol/L Tris-HCl pH 7.5, 1% Triton X-100, 1 mmol/L EDTA, 1 mmol/L EGTA, 0.5 mmol/L Na3VO4, 0.1% β-mercaptoethanol, 50 mmol/L NaF, 5 mmol/L Na4O7P3, 10 mmol/L C3H7O6Na, 1 μmol/L Microcystin LR, 1× Complete Protease Inhibitor Cocktail (ROCHE)) was then added to the cells and the reaction was carried out on ice for 5 min to lyse the cells. The cell lysate was subjected to sodium dodecyl sulfate-polyacrylamide gel electrophoresis (SDS-PAGE) to separate proteins. The proteins were transferred to a PVDF membrane (Hybond-P, Amersham Biosciences). The membrane was reacted overnight at 4° C. with anti-phospho ERK (p42/44 MAPK) monoclonal antibody (E10, Cell Signaling Technologies) diluted 1000-fold, and was subsequently reacted for 1 hour at room temperature with alkaline phosphatase-labeled anti-mouse IgG antibody (Molecular Probe) diluted 6000-fold. After washing with 20 mmol/L Tris-HCl and 150 mmol/L NaCl solution, the PVDF membrane was fluorostained with DDAO phosphate (DyeChrome Western Blot Stain Kit, Molecular Probe), a fluorescent substrate of alkaline phosphatase. The fluorescence was detected using a variable image analyzer (Typhoon 8600, Amersham Biosciences). The detected signal of phosphorylated ERK was quantified using ImageQuant software (Molecular Dynamics). The rate of ERK activation (%) for each test compound was calculated by the difference (100%) of the signal intensity between solvent only and S1P (10^−6 mol/L).

| Structure (SMILES) | EC50 (hS1P3 receptors) | EC50 (hS1P1 receptors) | also measured |
| --- | --- | --- | --- |
| CC(N)(CCCc1ccc(Sc2cccc(OCc3ccccc3)c2)cc1Cl)COP(=O)(O)O (single isomer, unassigned; (+)) [Example 239, (+)-2-amino-5-[4-(3-benzyloxyphenylthio)-2-chlorophenyl]-2-methylpentylphosphonate monoester] | < 10 nM | < 10 nM | inhibition in vivo at 0.03 mg/kg [1]: 65% |
| CCOP(=O)(C=CC(N)CCCc1ccc(Sc2cccc(OCc3ccccc3)c2)cc1Cl)OCC (stereo not drawn) [Example 233, Diethyl 3-amino-6-[4-(3-benzyloxyphenylthio)-2-chlorophenyl]-1-hexenylphosphonate hydrochloride] | – | – | inhibition in vivo at 30 mg/kg [1]: 53% |
| CCOP(=O)(CCC(N)CCCc1ccc(Sc2cccc(OCc3ccccc3)c2)cc1Cl)OCC (stereo not drawn) [Example 235, Diethyl 3-amino-6-[4-(3-benzyloxyphenylthio)-2-chlorophenyl]hexylphosphonate hydrochloride] | – | – | inhibition in vivo at 30 mg/kg [1]: 56% |
| NC(CO)(CCCc1ccc(Sc2cccc(OCc3ccccc3)c2)cc1Cl)COP(=O)(O)O (stereo not drawn) [Example 236, 2-amino-5-[4-(3-benzyloxyphenylthio)-2-chlorophenyl]-2-hydroxymethylpentylphosphonate monoester] | 10 to 100 nM | 10 to 100 nM | Induction effect of ERK activation on hS1P-expressing CHO cells (Activation rate (%) relative to the activated ERK at S1P10-6 mol/L) (hS1P4 receptors; Compound Conc. 1 nmol/L): 8.0%; Induction effect of ERK activation on hS1P-expressing CHO cells (Activation rate (%) relative to the activated ERK at S1P10-6 mol/L) (hS1P4 receptors; Compound Conc. 10 nmol/L): 119.5%; inhibition in vivo at 0.03 mg/kg [1]: 73% |
| NC(CO)(CCc1ccc(Sc2cccc(OCc3ccccc3)c2)cc1Cl)COP(=O)(O)O (stereo not drawn) [Example 237, 2-amino-4-[4-(3-benzyloxyphenylthio)-2-chlorophenyl]-2-hydroxymethylbutylphosphonate monoester] | < 10 nM | < 10 nM | Induction effect of ERK activation on hS1P-expressing CHO cells (Activation rate (%) relative to the activated ERK at S1P10-6 mol/L) (hS1P4 receptors; Compound Conc. 1 nmol/L): 35.8%; Induction effect of ERK activation on hS1P-expressing CHO cells (Activation rate (%) relative to the activated ERK at S1P10-6 mol/L) (hS1P4 receptors; Compound Conc. 10 nmol/L): 80.7%; inhibition in vivo at 0.1 mg/kg ([1]; Dose 0.1 mg/kg): 75% |
| NC(CO)(CCCc1ccc(Sc2cccc(O)c2)cc1Cl)COP(=O)(O)O (stereo not drawn) [Example 238, 2-amino-5-[2-chloro-4-(3-hydroxyphenylthio)phenyl]-2-hydroxymethylpentylphosphonate monoester] | ≥ 1000 nM | 100 to 1000 nM | inhibition in vivo at 3 mg/kg ([1]; Dose 3 mg/kg): 65% |
| NC(CCCc1ccc(Sc2cccc(OCc3ccccc3)c2)cc1Cl)CCP(=O)(O)O (stereo not drawn) [Example 241, 3-amino-6-[4-(3-benzyloxyphenylthio)-2-chlorophenyl]hexylphosphonic acid] | ≥ 1000 nM | 100 to 1000 nM | inhibition in vivo at 10 mg/kg [1]: 46% |
| NC(/C=C/P(=O)(O)O)CCCc1ccc(Sc2cccc(OCc3ccccc3)c2)cc1Cl (stereo not drawn) [Example 242, 3-amino-6-[4-(3-benzyloxyphenylthio)-2-chlorophenyl]-1-hexenylphosphonic acid] | ≥ 1000 nM | 100 to 1000 nM | inhibition in vivo at 10 mg/kg [1]: 62% |
